Converted amounts (≈) assume the structure as drawn.
Assays:
Histone deacetylase [1] = test: Inhibition of [3H]-Apicidin A binding to Histone deacetylase of chick liver extract; parameters: species or system Gallus gallus
[2] = biological target: Histone deacetylase (Eimeria tenella); test: Displacement of [3H]-Apicidin A from Histone deacetylase of Eimeria tenella extract
[3] = Tested for parasite (malaria)-based antiproliferative assay; ND means no data; assay type: functional
[4] = Tested for parasite (malaria)-based antiproliferative assay; assay type: functional
HeLa = test: Tested for mammalian cell (HeLa)-based antiproliferative assay; assay type: functional, Homo sapiens
Histone deacetylase [5] = test: Tested for Histone deacetylase enzyme inhibition assay using mammalian cell nuclear extract (HeLa); assay type: protein assay, Homo sapiens

| SMILES | IC50 (Histone deacetylase [1]) [mg/L] | IC50 [2] [µM] | IC50 [3] [mg/L] | IC50 [4] [mg/L] | AP50 (HeLa) [ng/mL] | IC50 (Histone deacetylase [5]) [µM] |
| --- | --- | --- | --- | --- | --- | --- |
| CCC(=O)CCCCC[C@@H]1NC(=O)[C@H]2CCCCN2C(=O)[C@H]([C@@H](C)CC)NC(=O)[C@H](Cc2cn(CC(=O)O)c3ccccc23)NC1=O | 0.065 (≈ 0.0997 µM) | 0.0997 | 1 (≈ 1.53 µM) |  |  |  |
| CCC(=O)CCCCC[C@@H]1NC(=O)[C@H]2CCCCN2C(=O)[C@H]([C@@H](C)CC)NC(=O)[C@H](Cc2cn(CC(=O)OC)c3ccccc23)NC1=O [listing 1 of 2 here] | 0.005 (≈ 0.00751 µM) | 0.0105 |  | 0.25 (≈ 0.375 µM) |  |  |
| CCC(=O)CCCCC[C@@H]1NC(=O)[C@H]2CCCCN2C(=O)[C@H]([C@@H](C)CC)NC(=O)[C@H](Cc2cn(C)c3ccccc23)NC1=O | 0.005 (≈ 0.00823 µM) | 0.0197 |  | 0.02 (≈ 0.0329 µM) | 225 |  |
| CCC(=O)CCCCC[C@@H]1NC(=O)[C@H]2CCCCN2C(=O)[C@H]([C@@H](C)CC)NC(=O)[C@H](c2cnc3ccccc3c2O)NC1=O | 1 (≈ 1.65 µM) | 0.0247 |  | 0.04 (≈ 0.0658 µM) | >10000 |  |
| CCCn1cc(C[C@@H]2NC(=O)[C@H](CCCCCC(=O)CC)NC(=O)[C@H]3CCCCN3C(=O)[C@H]([C@@H](C)CC)NC2=O)c2ccccc21 [listing 1 of 2 here] |  |  |  |  | 625 |  |
| CCC(=O)CCCCC[C@@H]1NC(=O)[C@H]2CCCCN2C(=O)[C@H]([C@@H](C)CC)NC(=O)[C@H](c2cn(CC(=O)OC)c3ccccc3c2=O)NC1=O [listing 1 of 2 here] | 2 (≈ 2.94 µM) | 0.441 |  | 0.79 (≈ 1.16 µM) |  |  |
| CCC(=O)CCCCC[C@@H]1NC(=O)[C@H]2CCCCN2C(=O)[C@H]([C@@H](C)CC)NC(=O)[C@H](Cc2cn(OC)c3ccccc23)NC1=O [APICIDIN] |  |  |  | 0.057 (≈ 0.0914 µM) | 78 |  |
| CCC(=O)CCCCC[C@@H]1NC(=O)[C@H]2CCCCN2C(=O)[C@H]([C@@H](C)CC)NC(=O)[C@H](c2cn(C)c3ccccc3c2=O)NC1=O [listing 1 of 2 here] |  |  |  |  | >10000 |  |
| CCC(=O)CCCCC[C@@H]1NC(=O)[C@H]2CCCCN2C(=O)[C@H]([C@@H](C)CC)NC(=O)[C@H](c2cn(C)c3ccccc3c2=O)NC1=O [listing 2 of 2 here] | 1 (≈ 1.61 µM) | 0.0965 |  | 0.117 (≈ 0.188 µM) |  | 0.241 |
| CCC(=O)CCCCC[C@@H]1NC(=O)[C@H]2CCCCN2C(=O)[C@H]([C@@H](C)CC)NC(=O)[C@H](c2cn(CC(=O)O)c3ccccc3c2=O)NC1=O [listing 1 of 2 here] |  |  |  |  | >10000 |  |
| CCC(=O)CCCCC[C@@H]1NC(=O)[C@H]2CCCCN2C(=O)[C@H]([C@@H](C)CC)NC(=O)[C@H](c2cn(CC)c3ccccc3c2=O)NC1=O | 2 (≈ 3.15 µM) | 0.11 |  | 0.24 (≈ 0.377 µM) | >10000 | 0.33 |
| CCCn1cc([C@@H]2NC(=O)[C@H](CCCCCC(=O)CC)NC(=O)[C@H]3CCCCN3C(=O)[C@H]([C@@H](C)CC)NC2=O)c(=O)c2ccccc21 [listing 1 of 2 here] |  |  |  |  | >10000 |  |
| CCCn1cc(C[C@@H]2NC(=O)[C@H](CCCCCC(=O)CC)NC(=O)[C@H]3CCCCN3C(=O)[C@H]([C@@H](C)CC)NC2=O)c2ccccc21 [listing 2 of 2 here] | 0.01 (≈ 0.0157 µM) | 0.0472 |  | 0.25 (≈ 0.393 µM) |  |  |
| CCCn1cc([C@@H]2NC(=O)[C@H](CCCCCC(=O)CC)NC(=O)[C@H]3CCCCN3C(=O)[C@H]([C@@H](C)CC)NC2=O)c(=O)c2ccccc21 [listing 2 of 2 here] | 0.7 (≈ 1.08 µM) | 0.192 |  | 0.44 (≈ 0.677 µM) |  | 0.23 |
| CCC(=O)CCCCC[C@@H]1NC(=O)[C@H]2CCCCN2C(=O)[C@H]([C@@H](C)CC)NC(=O)[C@H](c2cn(CC(=O)O)c3ccccc3c2=O)NC1=O [listing 2 of 2 here] | 5 (≈ 7.51 µM) | 3 |  | 0.55 (≈ 0.826 µM) |  |  |
| CCC(=O)CCCCC[C@@H]1NC(=O)[C@H]2CCCCN2C(=O)[C@H]([C@@H](C)CC)NC(=O)[C@H](Cc2cn(CC)c3ccccc23)NC1=O | 0.01 (≈ 0.0161 µM) | 0.161 |  | 0.18 (≈ 0.289 µM) |  |  |
| CCC(=O)CCCCC[C@@H]1NC(=O)[C@H]2CCCCN2C(=O)[C@H]([C@@H](C)CC)NC(=O)[C@H](c2cn(OC)c3ccccc3c2=O)NC1=O | 1 (≈ 1.57 µM) | 0.0627 |  | 0.04 (≈ 0.0627 µM) | 10000 | 0.086 |
| CCC(=O)CCCCC[C@@H]1NC(=O)[C@H]2CCCCN2C(=O)[C@H]([C@@H](C)CC)NC(=O)[C@H](Cc2cn(CC(=O)OC)c3ccccc23)NC1=O [listing 2 of 2 here] |  |  |  |  | 150 |  |
| CCC(=O)CCCCC[C@@H]1NC(=O)[C@H]2CCCCN2C(=O)[C@H]([C@@H](C)CC)NC(=O)[C@H](c2cn(CC(=O)OC)c3ccccc3c2=O)NC1=O [listing 2 of 2 here] |  |  |  |  | >10000 |  |
